Here are results for five compounds from patent US9636374B2, “pH-sensitive polymer-drug conjugates for targeted delivery of therapeutics” (priority 2011, dated 2017).

“Also recorded” adds a separate entry of the source.

The nature of series [1]: H1-NMR analysis of pH-dependent dissociation of bortezomib-catechol conjugates. It counts as physicochemical. The conditions noted are these: as the pH decreased from 7.4 to 5.5; 1 mM in deuterated phosphate buffer. As for the experimental part:
First, the pH-dependent reversible binding between BTZ and catechol-containing polymers was characterized using H^1-NMR spectroscopy (FIG. 3A). At pH 5.5, mixing BTZ and catechol-containing dopamine (DA) gave a spectrum similar to that of the two individual compounds superimposed on each other, indicating the presence of un-complexed BTZ and DA.
H^1-NMR analysis of pH-dependent dissociation of bortezomib-catechol conjugates. Bortezomib and dopamine hydrogen chloride were dissolved separately in d6-DMSO 0.2 M concentration. The two solutions were mixed to give a stock solution of DA-BTZ conjugate at 0.1 M in DMSO. A solution of 0.1 M monosodium phosphate in D2O was used to dilute the DA-BTZ stock to 1 mM, and pH of such solutions were adjusted with 4N NaOH in D2O to 5.5, 6.5, 7.4 and 8.5. These solutions were analyzed on AVANCE III 500 MHz (FIG. 6) and peak integrals in the range of 7.2 to 5.5 ppm were used for quantifying the degree of dissociation of DA-BTZ presented in FIG. 3B.

The test system of series [2] is MDA-MB-231, MCF-10A-H-RasV12 and MCF-10A-Vector cells. As to the kind of experiment: Biotin-mediated cell uptake of PEG-FITC (fluorescence microscopy). It counts as cell-based, human. Conditions: 15 minute-treatment; for cellular uptake: 1 μM, cancer and noncancerous cells.
A short description of series [3]: 3-component inhibition fluorescence assay (ARS-bortezomib competition). The conditions noted are these: from pH 7.4 to pH 5.5. Format: physicochemical. On the procedure:
3-component inhibition fluorescence assay. The fluorescence assay for characterizing pH-sensitive binding between bortezomib and catechol was carried out using procedures modified from the aforementioned literature method. Briefly, a solution of 0.1 mM ARS was prepared in 0.1 M phosphate monosodium buffer (solution A). Bortezomib was dissolved in solution A to achieve final concentration of 1 mM (solution B). The pH of both solution A and solution B was adjusted to 5.5, 6.5 and 7.4 using a 4N NaOH aqueous solution. Solution B was titrated to solution A to make a series of solutions that contain constant concentration of ARS (0.1 mM) and varying concentration of bortezomib (0˜1 mM) at defined pH. After mixing the two solutions, the final solution stood for 5 minutes before fluorescence measurement at excitation 495 nm, emission 565 nm on SpectraMax M5 (Molecular Devices, Sunnyvale, Calif.). This procedure was used to probe the pH-dependence of ARS-BTZ binding (FIG. 6). The binding capacity of catechol for bortezomib was characterized based on the inhibition of catechol on ARS-bortezomib binding, resulting in a decrease in fluorescence intensity. […] Fluorescence intensity of each solution was measured to plot the binding inhibition curves in FIG. 7. […] Fmax refers to the fluorescence intensity of ARS-BTZ conjugate in solution C at a defined pH. […]

Take `CC(C)CC(NC(=O)C(Cc1ccccc1)NC(=O)c1cnccn1)B1Oc2ccc(CCN)cc2O1` (centres unmarked) [BTZ-catechol conjugate]: in series [1], the “increase in dissociation of the BTZ-catechol conjugate” value is reported as 50%. Turning to `O=C(O)CCCC[C@@H]1SC[C@@H]2NC(=O)N[C@@H]21` [biotin, reference compound], the “inhibition of cellular uptake of biotin-PEG-FITC” value in series [2] (free biotin in buffer) is listed as “Dose-dependent inhibition”. As to PEG-FITC, the cellular uptake result in series [2] was “little; also recorded: minimal”. As to PEG-catechol, the “decrease in binding affinity for BTZ” value in series [3] was “about 60%”. For biotin-PEG-FITC, in series [2], the cellular uptake entry is “showed uptake; also recorded: rapidly taken up”.
